Measurements as given in patent publication US8785422B2, “A-ring modified 19-nor-vitamin D analogs and their uses” (Wisconsin Alumni Research Foundation, priority 2012, dated 2014).
Entries after “also recorded” stand apart in the source; their conditions may differ.

Assays:
[1] = system: Human promyelocyte leukemia (HL60) cells; assay: HL-60 differentiation (nitro blue tetrazolium reduction); type: cell-based; conditions: four days, FIG. 2
Experimental: The study drugs were dissolved in ethanol and the concentrations determined using UV spectrophotometry. Serial dilutions were prepared so that a range of drug concentrations could be tested without changing the final concentration of ethanol (≦0.2%) present in the cell cultures.
Human promyelocyte leukemia (HL60) cells were grown in RPMI-1640 medium containing 10% fetal bovine serum. The cells were incubated at 37° C. in the presence of 5% CO2.
HL60 cells were plated at 1.2×10^5 cells/ml. Eighteen hours after plating, cells in duplicate were treated with drug. Four days later, the cells were harvested and a nitro blue tetrazolium reduction assay was performed. (See Collins et al., 1979: J. Exp. Med. 149:969-974), The percentage of differentiated cells was determined by counting a total of 200 cells and recording the number that, contained intracellular black-blue formazan deposits. Verification of differentiation to monocytic cells was determined by measuring phagocytic activity.

[2] = system: 24-hydroxylase (24 Ohase) gene promoter upstream of a luciferase reporter gene in ROS 1.7/2.8 (bone) cells; assay: In vitro transcription assay (luciferase reporter); type: cell-based; conditions: 24-hydroxylase promoter luciferase, sixteen hours after dosing; FIG. 3; read-out: EC50, stimulation of gene transcription in bone cells
Experimental: In Vitro Transcription Assay.
Transcription activity was measured in ROS 1.7/2.8 (bone) cells that were stably transfected with a 24-hydroxylase (24 Ohase) gene promoter upstream of a luciferase reporter gene. (See Arbour et al., 1998). Cells were given a range of doses. Sixteen hours after dosing the cells were harvested and luciferase activities were measured using a luminometer. RLU=relative luciferase units.

[3] = system: bone calcium mobilization; assay: Bone calcium mobilization (serum calcium) in vitamin D-deficient rats; type: in vivo, Sprague-Dawley rats; conditions: low calcium diet (0.02%), ip once daily for 4 consecutive days, DA2HE up to 35100 pmol/day, FIG. 4
Excerpt: (§1) Intestinal Calcium Transport and Bone Calcium Mobilization Male, weanling Sprague-Dawley rats were placed on Diet 11 (see Suda et al., J. Nutr. 100:1049, 1970) (0.47% Ca)+vitamins AEK for one week followed by Diet 11 (0.02% Ca)+vitamins AEK for 3 weeks. The rats were then switched to the same diet containing 0.47% Ca for one week followed by two weeks on the same diet containing 0.02% Ca. Dose administration began during the last week on 0.02% calcium diet. Four consecutive ip doses were given approximately 24 hours apart. Twenty-four hours after the last dose, blood was collected from the severed neck and the concentration of serum calcium determined by atomic absorption spectrometry as a measure of bone calcium mobilization. The first 10 cm of the intestine was also collected for intestinal calcium transport analysis using the everted gut sac method.

[4] = target: T1, full-length recombinant rat vitamin D receptor (Rattus norvegicus, UniProt P13053); assay: Vitamin D receptor binding, competition with [3H]-1,25(OH)2D3; conditions: FIG. 1
T1 construct: Full-length recombinant rat receptor was expressed in E. coli BL21 (DE3) Codon Plus RIL cells; histidine tag (C); made in house; host or cells: E. coli BL21 (DE3) Codon Plus RIL
T1 sequence (P13053 1-423): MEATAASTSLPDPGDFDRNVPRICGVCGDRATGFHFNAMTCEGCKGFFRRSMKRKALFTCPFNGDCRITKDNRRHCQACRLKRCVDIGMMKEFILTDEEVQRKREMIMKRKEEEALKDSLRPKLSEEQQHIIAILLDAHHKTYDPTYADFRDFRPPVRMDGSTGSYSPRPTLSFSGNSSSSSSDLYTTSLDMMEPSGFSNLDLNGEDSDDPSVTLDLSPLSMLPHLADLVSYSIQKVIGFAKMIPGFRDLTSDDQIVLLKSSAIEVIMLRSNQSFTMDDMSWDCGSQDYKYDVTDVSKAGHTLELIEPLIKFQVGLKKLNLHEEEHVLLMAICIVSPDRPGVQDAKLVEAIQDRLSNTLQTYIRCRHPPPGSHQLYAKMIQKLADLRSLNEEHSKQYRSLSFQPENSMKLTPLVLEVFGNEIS
Excerpt: Vitamin D Receptor Binding
Full-length recombinant rat receptor was expressed in E. coli BL21 (DE3) Codon Plus RIL cells and purified to homogeneity using two different column chromatography systems. The first system was a nickel affinity resin that utilizes the C-terminal histidine tag on this protein. The protein that was eluted from this resin was further purified using ion exchange chromatography (S-Sepharose Fast Flow). Aliquots of the purified protein were quick frozen in liquid nitrogen and stored at −80° C. until use. For use in binding assays, the protein was diluted in TEDK50 (50 mM Tris, 1.5 mM EDTA, pH 7.4, 5 mM DTT, 150 mM KCI) with 0.1% Chaps detergent. The receptor protein and ligand concentration was optimized such that no more than 20% of the added radiolabeled ligand was bound to the receptor.
Assay Conditions. Radiolabeled and unlabeled ligands were added to 100 mcl of the diluted protein at a final ethanol concentration of ≦10%, mixed and incubated overnight on ice to reach binding equilibrium. The following day, 100 mcl of hydroxylapatite slurry (50%) was added to each tube and mixed at 10-minute intervals for 30 minutes. The hydroxylapaptite was collected by centrifugation and then washed three times with Tris-EDTA buffer (50 mM Tris, 1.5 mM EDTA, phi 7.4) containing 0.5% Triton X-100. After the final wash, the pellets were transferred to scintillation vials containing 4 ml of Biosafe II scintillation cocktail, mixed and placed in a scintillation counter. Total binding was determined from the tubes containing only radiolabeled ligand.

[5] = system: intestinal calcium transport; assay: Intestinal calcium transport (everted gut sac) in vitamin D-deficient rats; type: in vivo, Sprague-Dawley rats; conditions: 4 consecutive ip doses, FIG. 5
Excerpt: as §1

VDR binding activity relative to 1α,25-dihydroxyvitamin D3 ([4]; compared to natural hormone) | Ki ([4]; full-length recombinant rat vitamin D receptor, read-out: Ki, competition with [3H]-1,25(OH)2D3 for binding to VDR) [nM] | VDR binding activity relative to standard 1α,25-(OH)2D3, in log ([4]; less activity than standard) | EC50 ([1]; Homo sapiens, HL-60, 96 h) [nM] | Compound | EC50 [1] [nM] | EC50 [2] [nM] | bone calcium mobilization activity (serum calcium) [3] | potency in promoting active calcium transport across the gut relative to 1α,25(OH)2D3 [5] | intestinal calcium transport activity ([5]; low calcium diet (0.02%), everted gut sac)
 |  |  |  | C=C1/C(=C\C=C2/CCC[C@]3(C)[C@@H]([C@H](C)CCCC(C)(C)O)CC[C@@H]23)C[C@@H](O)C[C@@H]1O [1α,25-dihydroxyvitamin D3, reference compound] | 3 | 0.08 | increased serum calcium levels |  | 
about 10 times less activity | 0.4 | about one | 300 | C[C@H](CCCC(C)(C)O)C1CCC2/C(=C/C=C(CCO)CCO)CCC[C@@]21C (some centres unmarked) [DA2HE, seco-A-2,19-dinor-1,25-dihydroxyvitamin D3] |  | 40 | lacks any bone calcium mobilization activity; also recorded: no mobilization of bone calcium | about 10 times less potent | relatively high intestinal calcium transport activity which increases in a dose dependent manner
